Measurements reported in US20250382583A1, “ENHANCED METHODS FOR INDUCING AND MAINTAINING NAIVE HUMAN PLURIPOTENT STEM CELLS” (Washington University, priority 2021, published 2025).

Tests used:
Format in all cases: cell-based, human
H9 hESCs = assay: Primed-to-naïve reprogramming, colony morphology and colony numbers (imaging, AP staining); settings: for morphological appearance of naïve hESCs on individual addition to PXGGY/A: 20 ng/ml LIF, 0.5 μM IM12 or 0.5 μM WH-04, P2
Description: (§1) […]: For primed-to-naïve resetting experiments, primed hESCs were dissociated into single cells using TrypLE Express (GIBCO, 12604), washed in fibroblast medium [DMEM (Millipore Sigma, #SLM-021-B) supplemented with 10% FBS (HyClone, SH30396.03, 1×GlutaMAX (GIBCO, 35050), and 1% penicillin-streptomycin (GIBCO, 15140)] and 2×10^5 single primed hESCs were seeded on mitomycin C-inactivated mouse embryonic fibroblast (MEF) feeder cells coated 6 well plates in 3-4 mL mTeSR1 supplemented with 10 μM Y-27632. Two days later, medium was switched to either 5i/L/A or experimental induction media and maintained for 10-12 days. Cells at this stage were considered at passage zero. Cells were then split in a 1:2 or 1:3 ratio every 4-6 days as single cells using Accutase (Thermo Fischer Scientific, A1110501). PXGGY media were prepared in serum-free N2B27 media supplemented with 1 μM PD0325901, 2 μM XAV939, 2 μM Gö6938, 2.5 μM GDC-0994, and 10 μM Y-27632. PXGGY/A media were prepared in PXGGY supplemented with 10 ng/ml Activin A. During these assays cells were fed with fresh media every second day and cultured in 5% O2, 5% CO2 at 37° C. Detailed information on the conditions used for defining alternative naïve induction media can be found in Tables 1-6.
(§2) Alkaline phosphatase (AP) staining: AP staining was performed following the manufacturer's instructions using the Leukocyte Alkaline Phosphatase Kit (Sigma, 86R, 1KT). For AP staining cells were seeded at equal density in 6-well plates and passaged in the same ratio for all conditions. Post-staining cells were allowed to dry overnight in the dark and scanned using HP Color Laser Jet Managed printer/scanner (MFP E67650).
(§3) Imaging: The imaging of H9 and WIBR3 hESCs was performed in live conditions within culture media. For WIBR3 MECP2-GFP/tdTomato hESCs the medium was aspirated, cell were washed twice with PBS, and imaged in 1 mL of PBS. All images were captured at 10× magnification on a Leica DMi8 microscope.
Example 1 establishes the PXGGY/A cocktail enables efficient primed-to-naïve reprogramming, homogenous induction of naïve-specific cell surface markers CD75 and SUSD2, and homogenous X-chromosome reactivation. […] To address this, the impact of ROCK inhibitor Y-27632 titration was first assessed when used continuously or transiently for only 24 hours at the time of passaging during primed-to-naïve reprogramming (FIG. 9A and FIG. 9B). […] The PXGGY/A composition from hereon will be denoted as PXGGY/A to specify transient use of ROCKi.
However, the morphology of naïve hESCs reprogrammed using this condition still appeared flat compared to the characteristic dome-shaped colony morphology associated with naïve pluripotency. […]

H9 primed hESCs = assay: Primed-to-naïve resetting, flow cytometry for CD75 and SUSD2
Description: as §1, with “PXGGY/A media were prepared in PXGGY supplemented with 10 ng/ml Activin A. During these assays cells were fed with fresh media every second day and cultured in 5% O2, 5% CO2 at 37° C. Detailed information on the conditions used for defining alternative naïve induction media can be found in Tables 1-6.” left out
Flow cytometry: Primed hESCs were single-cell dissociated using TrypLE Express, while Accutase was used for naïve hESCs. […] Flow cytometry was performed using a BD LSRFortessa X-20 and the data were analyzed using the FlowJo software.

[1] = system: WIBR3 OCT4-ΔPE-GFP+naïve hESCs; assay: High-throughput chemical screening in absence of 2i, OCT4-ΔPE-GFP reporter, high-content imaging; settings: N2B27/Y
Description: High-throughput chemical screening: For high-throughput screening, WIBR3 OCT4-ΔPE-GFP+naïve hESCs generated with inducible KLF2 and NANOG transgenes were used, as described previously. These cells were maintained in 1 μM PD0325901, 1 µM CHIR99021, and 2 μg/ml DOX (Sigma) (2i/DOX). For compound screening in presence of 2i/Y, 3,000 OCT4-ΔPE-GFP+naïve hESCs were seeded per well in vitronectin-coated 384 well plates in serum-free N2B27 media supplemented with 1 μM PD0325901, 1 μM CHIR99021, and 10 μM Y-27632. The next day individual compounds from the Novartis Mechanism of Action (MoA) library were applied at two concentrations (2.5 μM and 5 μM) in duplicate using an Echo 550 Acoustic Liquid Handler (Labcyte), and compounds were refreshed on day 4. Images were analyzed on day 5 post-DOX withdrawal using a Yokogawa Cell Voyager 7000 High-Content Imaging System in confocal mode using a 10× dry (NA=0.45) objective lens using four fields per well that provided for full well coverage. While the screen was performed at two concentrations (2.5 μM and 5 μM), the lower concentration yielded few additional hits. Hit compounds were validated in 384 well plates across an 8-point concentration range in duplicates. […] Images were acquired using the Yokogawa Cell Voyager 7000 on day 7 and analyzed as described above. […]

H9-naïve hESCs [2] = assay: Extended maintenance assay, flow cytometry for naïve-specific CD75 and SUSD2; settings: serum-free media supplemented with XGY, 2.5 μM compound
Description: (§4) Defining alternative naïve maintenance media: To define the activity of selected hit compounds during extended naïve culture, naïve hESCs derived from the primed state and maintained in 5i/L/A were dissociated with Accutase (Thermo Fischer Scientific, A1110501) and 1.5×10^5 single cells were seeded in 5i/L/A media on MEF-coated plates. After 24 hours, 5i/L/A media were switched to experimental maintenance conditions to validate hits from the screen. After 4-6 days the cells were split in a 1:2 or 1:3 ratio and further maintained for 4-6 days before analysis by FACS, qRT-PCR, AP staining, and/or RNA-seq. 5i/L/A media in which the MEK inhibitor PD0325901 was replaced with 5 μM AZ628 are represented as alternative 5i/L/A (a5i/L/A). FXGY, AXGY, AXGYU, PXGY, and GXGY media were prepared in serum-free N2B27 media supplemented with 1 μM PD166866, 5 μM AZ628, 5 μM AZ628 and 1 μM UNC0638, 1 μM PD0325901, and 5 μM GDC-0994, respectively, together with 2 μM XAV939, 2 μM Gö6983, and 10 μM Y-27632. During these assays cells were fed with fresh media every second day and cultured in 5% O2, 5% CO2 at 37° C. Detailed information on conditions used for defining alternative naïve maintenance media can be found in Tables 1-6.
Flow cytometry: Primed hESCs were single-cell dissociated using TrypLE Express, while Accutase was used for naïve hESCs. Cells were resuspended in fibroblast medium and centrifuged. Cell pellets were washed in 5 mL ice-cold PBS. The cells were then resuspended in […] fresh ice-cold FACS buffer (PBS supplemented with 5% FBS), and incubated with antibodies for 30 minutes on ice in the dark. The following antibodies were used: anti-SUSD2-PE (1:100), anti-CD75-eFluor 660 (1:100), anti-CD90-PE (1:100), anti-ITGA6-FITC (1:100) and EGFR-APC (1:25). Post-incubation the cells were washed once with 1 mL ice-cold PBS, resuspended in fresh 500 μl FACS buffer, and passed through a […] cell strainer into round bottom FACS tubes (Corning, #352235). Flow cytometry was performed using a BD LSRFortessa X-20 and the data were analyzed using the FlowJo software.

naïve hESCs = assay: Colony morphology, proliferation and colony formation (phase contrast, AP staining) during naïve maintenance
Description: as §4, §2, §3

[3] = system: WIBR3 OCT4-ΔPE-GFP+-naïve hESCs; assay: Extended maintenance assay, OCT4-ΔPE-GFP reporter activity (imaging, qRT-PCR); settings: for activity in maintaining OCT4-ΔPE-GFP reporter activity after passaging: 2.5 and 5 μM, two passages
Description: as §4
(§5) Quantitative reverse transcriptase PCR (qRT-PCR): Total RNA was isolated using the E.Z.N.A. total RNA kit I and cDNA synthesis was performed from total RNA using the high-capacity cDNA reverse transcription kit (Applied Biosystems, 4368814). qRT-PCR was performed using PowerUp SYBR Green Master Mix (Applied Biosystems, A25743) on the StepOnePlus Real-Time PCR System (Applied Biosystems). Gene expression was normalized to RPLP0 and analyzed using the ΔCt method. Error bars represent the standard deviation (SD) of the mean of technical replicates.
For this purpose, WIBR3 OCT4-ΔPE-GFP+-naïve hESCs that were generated in the absence of reprogramming transgenes were used using the 5i/L/A cocktail. […] Compounds were tested at two different concentrations (2.5 and 5 μM), and cells were maintained for two passages (FIG. 2A).

H9-naïve hESCs [4] = assay: qRT-PCR for naïve-specific transcripts (KLF17, DNMT3L) during naïve maintenance
Description: as §4, §5

COc1ccc(N(C(=O)Oc2c(C)cccc2C)c2ccnc(Nc3ccc(N4CCN(C)CC4)cc3)n2)c(OC)c1 [WH-4-023]
morphological appearance of naïve hESCs on individual addition to PXGGY/A (H9 hESCs): did not result in a major improvement

C[C@@H](N)[C@H]1CC[C@H](C(=O)Nc2ccncc2)CC1 [Y-27632]
CD75+/SUSD2+ cell proportion (H9 primed hESCs; transient application of 10 μM in PXGGY/A, P1): without any significant reduction | morphology of reprogrammed naïve hESCs (H9 hESCs; transient application (24 hours at passaging) of 10 μM in PXGGY/A): improves the morphology

LIF: leukemia inhibitory factor, recombinant human cytokine
morphological appearance of naïve hESCs on individual addition to PXGGY/A (H9 hESCs): did not result in a major improvement

Oc1nc(-c2ccc(C(F)(F)F)cc2)nc2c1CSCC2 [XAV939]
colony size and OCT4-ΔPE-GFP signal compared to inhibition of MEK1 [1]: larger colonies but a slightly dimmer OCT4-ΔPE-GFP signal | increase in GFP activity (OCT4-ΔPE-GFP) ([1]; validation assays, absence of 2i): particularly strong effect

Cc1[nH]c2ccccc2c1C1=C(NCCc2ccc(F)cc2)C(=O)N(C)C1=O [IM12]
morphological appearance of naïve hESCs on individual addition to PXGGY/A (H9 hESCs): did not result in a major improvement

C/C(=N\NC(=N)N)c1cc(NC(=O)CCCCCCCCC(=O)Nc2cc(/C(C)=N/NC(=N)N)cc(/C(C)=N/NC(=N)N)c2)cc(/C(C)=N/NC(=N)N)c1 [Semapimod]
sustaining CD75/SUSD2-positive cells over multiple passages (H9-naïve hESCs [2]): some double-positive cells | proliferation of double-positive cells (naïve hESCs; serum-free media supplemented with XGY): very limited proliferation

Cc1ccc(NC(=O)c2cccc(C(C)(C)C#N)c2)cc1Nc1ccc2ncn(C)c(=O)c2c1 [AZ628]
activity in maintaining OCT4-ΔPE-GFP reporter activity after passaging ([3]; in Go/Y): showed activity | activity in maintaining OCT4-ΔPE-GFP reporter activity after passaging ([3]; in XAV/Y): showed activity | expansion of OCT4-ΔPE-GFP+ cells ([3]; in the presence of either XAV or Go): robust expansion | sustaining CD75/SUSD2-positive cells over multiple passages (H9-naïve hESCs [2]): robustly sustained

CC(C)(C)n1nc(-c2cccc3ccccc23)c2c(N)ncnc21 [Naphtol-PP1]
colony morphology upon addition to the AXGY cocktail (naïve hESCs; added to AXGY): enhanced dome-shaped colony morphology

COc1cc2c(NC3CCN(C(C)C)CC3)nc(C3CCCCC3)nc2cc1OCCCN1CCCC1 [UNC0638]
KLF17 expression upon addition to the AXGY cocktail (H9-naïve hESCs [4]; added to AXGY): further stimulated | colony proliferation compared to AXGY (naïve hESCs; added to AXGY): slightly reduced

COc1cc(OC)cc(-c2cc3cnc(N)nc3nc2NC(=O)NC(C)(C)C)c1 [PD166866]
activity in maintaining OCT4-ΔPE-GFP reporter activity after passaging ([3]; in the presence of ROCK inhibitor (Y) alone): showed activity | sustaining CD75/SUSD2-positive cells over multiple passages (H9-naïve hESCs [2]): robustly sustained | concentration effective to maintain expression of naïve-specific transcripts (titration) (H9-naïve hESCs [4]; in XAV/Gö/Y, KLF17 and DNMT3L): 1 µM | induction of CD75/SUSD2 double-positive cells in primed hESCs (H9 primed hESCs; in the presence of XGY and activin A, end of P1): heterogeneous induction
